The text below walks through data of patent US20250092058A1 (priority 2018, published 2025).

This assay relates to A2780CP70-GFPcODC cells. As to the kind of experiment: GFPcODC drug-resistant cell tracking, A2780CP. The following applies: 10 nM and 100 nM. The assay is classed as cell-based, human. From the text:
Generation of A2780-GFPcODC, A2780CP-GFPcODC and PANC1GFPcODC cells and fluorescence microscopy to detect stem-like and drug resistant green cells. The retroviral expression vector pQCXIN-ZsGreen-cODC (ornithine decarboxylase), containing a green fluorescence marker, was kindly provided by Dr. Frank Pajonk (Vlashi E, et al., In vivo imaging, tracking, and targeting of cancer stem cells. J Natl Cancer Inst. 2009; 101: 350-9). The retroviral particles collected from packaging cells that transfected with the above vector were infected into A2780, A2780CP and PANC1 cells, respectively. The transfected cell pool was used for experiments. The transfected cells were treated with and without cisplatin or FL118 alone or in combination for defined times. Cell images were acquired digitally using the Olympus IX73 Inverted Score s (Olympus). Percentages of living cells were obtained from the average of the total cells counted from 10 microscopic fields.
To test this, we used a novel approach developed in Dr. Pajonk's lab for the live tracking of drug resistant cells (Vlashi E, et al., In vivo imaging, tracking, and targeting of cancer stem cells. J Natl Cancer Inst. 2009; 101: 350-9). This approach takes advantage of reduced 26S proteasome activity of drug resistant cells. […]

As to `CC[C@@]1(O)C(=O)OCc2c1cc1n(c2=O)Cc2cc3cc4c(cc3nc2-1)OCO4` [FL118, 10,11-methylenedioxy-camptothecin], the “decrease of GFPcODC-positive drug-resistant cell population” value is “more than 50%”.
